From the supplement of paper PMC10307832 come the findings set out here.

Common to all, as to assay: relative viability (nuclei count vs DMSO), 5 days (fraction); higher = more cells survive
Compound in experiment [1]: CC1=CC(=CC=C1)NC2=NC(=CS2)C3=CC=NC=C3 + CC(=O)Nc1cccc(-n2c(=O)n(C3CC3)c(=O)c3c(Nc4ccc(I)cc4F)n(C)c(=O)c(C)c32)c1 [Trametinib] (partner 0.02 µM)
In outline:
(§1)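 Relative viability equals treated-well nuclei counts divided by vehicle-well nuclei counts. Counts came from 4× images of lung cancer cell lines grown in 1536-well plates for 5 days after pin-tool dosing on the day after seeding. Dosing used one drug alone or a fixed anchor-drug dose plus five library-drug doses (not always all listed) in √10 steps, and values are medians of duplicate plates.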

Compound in experiment [2]: CC1=CC(=CC=C1)NC2=NC(=CS2)C3=CC=NC=C3 + CC(=O)c1c(C)c2cnc(Nc3ccc(N4CCNCC4)cn3)nc2n(C2CCCC2)c1=O [Palbociclib] (partner 0.5 µM)
In a few lines: as §1

Compound in experiment [3]: CC1=CC(=CC=C1)NC2=NC(=CS2)C3=CC=NC=C3 + CC1(C)CCC(c2ccc(Cl)cc2)=C(CN2CCN(c3ccc(C(=O)NS(=O)(=O)c4ccc(N[C@H](CCN5CCOCC5)CSc5ccccc5)c(S(=O)(=O)C(F)(F)F)c4)cc3)CC2)C1 [Navitoclax] (partner 0.5 µM)
In a few lines:
as §1

Compound in experiment [4]: CC1=CC(=CC=C1)NC2=NC(=CS2)C3=CC=NC=C3 + C[C@]1(O)C[C@@H](c2nc(-c3ccc4ccc(-c5ccccc5)nc4c3)c3c(N)nccn32)C1 [Linsitinib] (partner 1 µM)
In a few lines: as §1

PC-14: the relative viability in experiment [1] (first compound 0.08 µM) was determined as 0.591; in experiment [1] (first compound 0.253 µM), 0.747; in experiment [1] (first compound 0.8 µM), 0.629; in experiment [1] (first compound 2.53 µM) it was 0.647; in experiment [1] (first compound 8 µM) it was 0.36; in experiment [2] (first compound 0.08 µM) it was 0.502. Besides, the relative viability was 0.484 in experiment [2] (first compound 0.253 µM); 0.553 in experiment [2] (first compound 0.8 µM); 0.515 in experiment [2] (first compound 2.53 µM); 0.394 in experiment [2] (first compound 8 µM); 0.922 in experiment [3] (first compound 0.08 µM); 1.01 in experiment [3] (first compound 0.253 µM). Further, the relative viability in experiment [3] (first compound 0.8 µM) was 0.892; in experiment [3] (first compound 2.53 µM) it was 0.933; in experiment [3] (first compound 8 µM), 0.439; in experiment [4] (first compound 0.08 µM), 0.858; in experiment [4] (first compound 0.253 µM), 0.944; in experiment [4] (first compound 0.8 µM), 0.86. The relative viability in experiment [4] (first compound 2.53 µM) amounted to 1.01; in experiment [4] (first compound 8 µM), 0.844.
For the cell line RERF-LC-KJ, the relative viability came to 0.953 in experiment [1] (first compound 0.08 µM); 0.734 in experiment [1] (first compound 0.253 µM); 0.735 in experiment [1] (first compound 0.8 µM); 0.703 in experiment [1] (first compound 2.53 µM); 0.645 in experiment [1] (first compound 8 µM); 1 in experiment [2] (first compound 0.08 µM). Further, the relative viability in experiment [2] (first compound 0.253 µM) was found to be 0.998; in experiment [2] (first compound 0.8 µM), 0.743; in experiment [2] (first compound 2.53 µM), 0.787; in experiment [2] (first compound 8 µM) it was 0.618; in experiment [3] (first compound 0.08 µM), 0.71; in experiment [3] (first compound 0.253 µM), 0.627. Also, the relative viability turned out to be 0.631 in experiment [3] (first compound 0.8 µM); 0.638 in experiment [3] (first compound 2.53 µM); 0.275 in experiment [3] (first compound 8 µM); 0.78 in experiment [4] (first compound 0.08 µM); 0.872 in experiment [4] (first compound 0.253 µM); 0.684 in experiment [4] (first compound 0.8 µM). In addition, the values for the relative viability in experiment [4] (first compound 2.53 µM) and in experiment [4] (first compound 8 µM) were 0.683 and 0.563, respectively.
As to SK-LU-1, the relative viability in experiment [1] (first compound 0.08 µM) worked out at 0.479; in experiment [1] (first compound 0.253 µM), 0.492; in experiment [1] (first compound 0.8 µM), 0.361; in experiment [1] (first compound 2.53 µM), 0.568; in experiment [1] (first compound 8 µM) it was 0.351; in experiment [2] (first compound 0.08 µM), 0.405. For the same cell line, the relative viability was 0.404 in experiment [2] (first compound 0.253 µM); 0.293 in experiment [2] (first compound 0.8 µM); 0.479 in experiment [2] (first compound 2.53 µM); 0.37 in experiment [2] (first compound 8 µM); 0.837 in experiment [3] (first compound 0.08 µM); 1.22 in experiment [3] (first compound 0.253 µM). Moreover, the relative viability worked out at 0.636 in experiment [3] (first compound 0.8 µM); 1.06 in experiment [3] (first compound 2.53 µM); 1.35 in experiment [3] (first compound 8 µM); 1.03 in experiment [4] (first compound 0.08 µM); 1.1 in experiment [4] (first compound 0.253 µM); 0.815 in experiment [4] (first compound 0.8 µM). The relative viability came to 1.17 in experiment [4] (first compound 2.53 µM) and 1 in experiment [4] (first compound 8 µM).
For SK-MES-1, the relative viability in experiment [1] (first compound 0.08 µM) worked out at 0.477; in experiment [1] (first compound 0.253 µM), 0.5; in experiment [1] (first compound 0.8 µM), 0.457; in experiment [1] (first compound 2.53 µM), 0.571; in experiment [1] (first compound 8 µM), 0.423; in experiment [2] (first compound 0.08 µM) it was 0.259. Further, the relative viability in experiment [2] (first compound 0.253 µM) was determined as 0.243; in experiment [2] (first compound 0.8 µM), 0.328; in experiment [2] (first compound 2.53 µM) it was 0.311; in experiment [2] (first compound 8 µM) it was 0.32; in experiment [3] (first compound 0.08 µM), 0.94; in experiment [3] (first compound 0.253 µM) it was 1.02. In addition, the relative viability is 1.1 in experiment [3] (first compound 0.8 µM); 1.06 in experiment [3] (first compound 2.53 µM); 1.08 in experiment [3] (first compound 8 µM); 0.878 in experiment [4] (first compound 0.08 µM); 0.933 in experiment [4] (first compound 0.253 µM); 0.81 in experiment [4] (first compound 0.8 µM). Besides, the figures for the relative viability in experiment [4] (first compound 2.53 µM) and in experiment [4] (first compound 8 µM) were 1.04 and 0.874, respectively.
Regarding SW 1573, the relative viability worked out at 0.596 in experiment [1] (first compound 0.08 µM); 0.585 in experiment [1] (first compound 0.253 µM); 0.741 in experiment [1] (first compound 0.8 µM); 0.696 in experiment [1] (first compound 2.53 µM); 0.48 in experiment [1] (first compound 8 µM); 0.443 in experiment [2] (first compound 0.08 µM). Besides, the relative viability turned out to be 0.364 in experiment [2] (first compound 0.253 µM); 0.43 in experiment [2] (first compound 0.8 µM); 0.426 in experiment [2] (first compound 2.53 µM); 0.257 in experiment [2] (first compound 8 µM); 0.916 in experiment [3] (first compound 0.08 µM); 0.965 in experiment [3] (first compound 0.253 µM). In addition, the relative viability in experiment [3] (first compound 0.8 µM) stood at 0.924; in experiment [3] (first compound 2.53 µM), 1.1; in experiment [3] (first compound 8 µM) it was 0.841; in experiment [4] (first compound 0.08 µM), 0.845; in experiment [4] (first compound 0.253 µM), 0.65; in experiment [4] (first compound 0.8 µM) it was 0.705. In addition, the relative viability in experiment [4] (first compound 2.53 µM) amounted to 0.901; in experiment [4] (first compound 8 µM) it was 0.779.
For UMC-11, the relative viability is 0.555 in experiment [1] (first compound 0.08 µM); 0.737 in experiment [1] (first compound 0.253 µM); 0.731 in experiment [1] (first compound 0.8 µM); 0.768 in experiment [1] (first compound 2.53 µM); 0.764 in experiment [1] (first compound 8 µM); 0.339 in experiment [2] (first compound 0.08 µM). Further, the relative viability in experiment [2] (first compound 0.253 µM) stood at 0.311; in experiment [2] (first compound 0.8 µM), 0.305; in experiment [2] (first compound 2.53 µM), 0.334; in experiment [2] (first compound 8 µM) it was 0.313; in experiment [3] (first compound 0.08 µM) it was 0.281; in experiment [3] (first compound 0.253 µM) it was 0.266. Besides, the relative viability in experiment [3] (first compound 0.8 µM) came out at 0.295; in experiment [3] (first compound 2.53 µM), 0.348; in experiment [3] (first compound 8 µM), 0.478; in experiment [4] (first compound 0.08 µM), 0.983; in experiment [4] (first compound 0.253 µM) it was 1; in experiment [4] (first compound 0.8 µM), 1.01. Further, the results for the relative viability in experiment [4] (first compound 2.53 µM) and in experiment [4] (first compound 8 µM) were 0.977 and 1.05, respectively.
